Measurements: patent US11707449B2, “Methods and formulations for treatment of spinobulbar muscular atrophy” (ST. JUDE CHILDREN'S RESEARCH HOSPITAL, INC., priority 2017, dated 2023)
Values joined by “and” are separate entries in the source; they are usually repeats but may differ in a detail not shown here. Equal values may be shown once. Read-outs that look alike come from different tables or passages of the source. Each block holds one compound with its values, some of them ahead of it.

What was measured:
AR121Q mice = assay: Pilot preclinical trial in AR121Q (SBMA) mice; assay type: in vivo, mouse; settings: male SBMA mice; 50 mg/kg intraperitoneally three times per week, 3 to 8 weeks of age
Procedure: To determine the efficacy of TA and/or MEPB in a mouse model of SBMA, we first performed a pilot study. Five mice were assigned to each drug treatment group: 50 mg/kg TA, 50 mg/kg MEPB, or vehicle (1% DMSO in corn oil). Drug identities were coded to ensure investigator blinding, and drugs were administered three times per week (Monday, Wednesday, and Friday) by intraperitoneal injection from 3 to 8 weeks of age. At 8 weeks, all mice were sacrificed and tissues were collected for pathologic analysis. To fully characterize the efficacy of MEPB in SBMA mice, a large-scale, multi-dose preclinical trial was performed. A power analysis (Table 1) was performed based on the pilot study data to determine the adequate number of mice required for 80% power. At least 10 mice were assigned to each drug treatment group: 50 mg/kg MEPB, 100 mg/kg MEPB, and vehicle (1% DMSO in corn oil). Drug identities were coded to ensure investigator blinding, and drugs were administered three times per week (Monday, Wednesday, and Friday) by intraperitoneal injections from 4 weeks until 30 weeks of age.
Body weight, rotarod activity, and grip strength data were collected weekly. Footprint analysis and clasping phenotype were assessed at 7 and 8 weeks of age. Body weight was measured using a standard laboratory scale (Fisher Scientific). Rotarod activity analysis was performed on an accelerating rotarod apparatus (IITC Life Science) using a two-day, weekly protocol. Mice were trained on the first day with one session set at 4 rpm for 5 min. The following day, mice were placed on the apparatus, rotation speed was set to accelerate from 4-40 rpm at a rate of 0.1 rpm/s, and the latency to fall was recorded for four separate trials per mouse. Mice were given a 15-min rest period between each trial. Grip strength was measured using a grip strength meter (Bioseb). Grip strength was measured as grams of force in six repeated measurements for forepaws and hindpaws of each animal. To perform gait/footprint analysis, the forepaws and hindpaws of each animal were dipped in red and blue, respectively, water-soluble, non-toxic paint. The animal was then placed in a 70-cm long tunnel lined on the bottom with Whatman filter paper, the entrance was sealed, and the animal was allowed to walk through one time. Footprints were scanned and analyzed with Image J for stride length and forepaw/hindpaw overlap^41. To determine clasping phenotype, mice were recorded using an Apple iPod camera (iOS version 6.1.6) for approximately 60 seconds and still frames were extracted using ImageJ.
A separate cohort of five mice per treatment group was generated for pathologic and biochemical analysis. Mice were anesthetized by isoflurane inhalation and transcardially perfused with either PBS for frozen tissue samples or 10% formalin for fixed tissue samples. Selected tissues (brain, spinal cord, gastrocnemius/soleus muscle, testes, and liver) were dissected and either snap-frozen in liquid nitrogen or processed for paraffin embedding/sectioning. Tissue sections were stained with hematoxylin and eosin, toluidine blue, or Gomori trichrome to ascertain overall morphology and pathologic changes. To determine AR staining and colocalization patterns, tissue sections were stained with anti-AR (N20, Santa Cruz), anti-polyQ (5TF1-1C2, EMD Millipore), or anti-ubiquitin (Cell Signaling Technology) antibodies. To quantify type I and type II myofibers, hindlimb tissue sections were stained with myosin heavy chain-slow twitch and myosin heavy chain-fast twitch antibodies (Leica Biosystems), respectively. For the purposes of counting ChAT-positive neurons, three stepped sections separated by 50 μm were analyzed for the cervical, thoracic, and lumbosacral areas of spinal cords. The slides contained three to six tissue sections at each level and were labeled with an anti-ChAT antibody (EMD Millipore). […]

[1] = Pharmacokinetics of MEPB and TA in plasma and tissues after a single intraperitoneal injection; assay type: in vivo, male FVB/NJ mice; settings: for bioavailability in muscle, brain, and spinal cord / bioavailability in SBMA-affected tissues: mice
Procedure: MEPB and TA concentrations in plasma, liver, muscle, testes, brain, and spinal cord of male FVB/NJ mice were measured at multiple time points (5 min to 48 h) after a single intraperitoneal injection of either 100 mg/kg body weight MEPB or 50 mg/kg body weight TA. MEPB or TA and the internal standard (IS) SLV320 (Tocris Biosciences) were extracted from plasma and tissue homogenate samples with methyl tert-butyl ether. A 25-μL aliquot of sample was mixed with 10 μL IS (100 ng/mL). To this, 600 μL methyl tert-butyl ether was added and vortexed for 5 min. After centrifugation at 10,000 rpm for 5 min, the organic layer was then transferred to a glass vial and dried in a CentriVap Console (Labconco) at 35° C. for 25 min. The dried extracts were then reconstituted with 400 μL methanol, and an aliquot of 3 μL was injected onto the chromatographic system. All chemicals were HPLC grade or higher and were obtained from Fisher Scientific (Fair Lawn) unless otherwise specified. Quantitation of MEPB and TA was performed using an API 4000 mass spectrometer (AB SCIEX) equipped with a Prominence Ultra-Fast Liquid Chromatograph (UFLCXR) system (Shimadzu). […] Mass spectrometric analysis was performed with the turbo ion spray in positive ionization mode. All MS data were acquired using Analyst 1.5.2 software and processed using MultiQuant 2.1.1 software (SCIEX).
For all matrices (plasma, liver, muscle, testes, brain, and spinal cord), the lower limit of quantification (LLOQ) of MEPB was 2.5 ng/mL with a calibration range of 2.5 ng/mL to 100 ng/mL. However, due to dilution during homogenization, the effective LLOQ was 15 ng/mL for solid tissues. The LLOQ of TA was 5 ng/mL for plasma and 60 ng/mL for tissues. […] The MEPB concentration-time (Ct) data for liver, muscle, testes, brain, and spinal cord were grouped by mouse and analyzed using a two-stage, semiphysiologic, nonlinear mixed effects approach with maximum likelihood expectation maximization in ADAPT 5. The pooled arithmetic mean Ct data were subjected to noncompartmental analysis by tissue using WinNonlin 6.4 (Pharsight, a Cetara Company). All PK parameters were calculated using standard formulae^43. Parameters estimated for all matrices included observed maximum concentration (Cmax), time of Cmax (Tmax), concentration at the last observed time point (Clast), time of Clast (Tlast), and area under the Ct curve (AUC). When applicable, the terminal phase was defined as the three time points at the end of the Ct profile, excluding Cmax, and the elimination rate constant (Kel) was estimated using an unweighted log-linear regression of the terminal phase. The terminal elimination half-life (T½) was estimated as 0.693/Kel, and the AUC from time 0 to infinity ([…]) was estimated as the AUC to the last time point (AUClast)+Clast/Ke. Apparent clearance (CL/F=Dose/AUCinf), and apparent terminal volume of distribution (Vz/F) were also calculated.

[2] = single intraperitoneal injection of 100 mg/kg MEPB or 50 mg/kg TA

Structure (SMILES): Cc1ccc(OCCn2c(SCCOc3ccccc3)nc3ccccc32)cc1 [MEPB, 1-[2-(4-methylphenoxy)ethyl]-2-[(2-phenoxyethyl)sulfanyl]-1H-benzimidazole]
- body weight (AR121Q mice): significantly improved
- gait and hindlimb clasping (AR121Q mice): improved gait and hindlimb clasping
- grip strength (AR121Q mice): significantly improved
- pathologic appearance of skeletal muscle and spinal cord degeneration (AR121Q mice): qualitatively recovered
- rotarod activity (AR121Q mice): significantly improved
- survival (AR121Q mice): no significant change in survival
- penetration and duration in muscle, spinal cord, and testes ([1]; NTG mice, single intraperitoneal injection of 100 mg/kg MEPB or 50 mg/kg TA): marked penetration and duration
- bioavailability in muscle, brain, and spinal cord [1]: good bioavailability
- bioavailability in SBMA-affected tissues [1, 2]: sufficient bioavailability

- Tlast (time of Clast) ([1]; TA in brain, single intraperitoneal injection of 50 mg/kg TA): 4 h
- Tlast (time of Clast) ([1]; TA in liver, single intraperitoneal injection of 50 mg/kg TA): 24 h
- Tlast (time of Clast) ([1]; TA in muscle, single intraperitoneal injection of 50 mg/kg TA): 8 h
- Tlast (time of Clast) ([1]; TA in plasma, single intraperitoneal injection of 50 mg/kg TA): 48 h
- Tlast (time of Clast) ([1]; TA in spinal cord, single intraperitoneal injection of 50 mg/kg TA): 4 h
- Tlast (time of Clast) ([1]; TA in testis, single intraperitoneal injection of 50 mg/kg TA): 8 h
- Cmax ([1]; male, FVB/NJ, mouse, ip, TA conc. in brain, single intraperitoneal injection of 50 mg/kg TA): 700 nM and 194 ng/mL
- Cmax ([1]; male, FVB/NJ, mouse, ip, TA conc. in liver, single intraperitoneal injection of 50 mg/kg TA): 260 µM and 67600 ng/mL
- Cmax ([1]; male, FVB/NJ, mouse, ip, TA conc. in muscle, single intraperitoneal injection of 50 mg/kg TA): 4.8 µM and 1250 ng/mL
- Cmax ([1]; male, FVB/NJ, mouse, ip, TA conc. in plasma, single intraperitoneal injection of 50 mg/kg TA): 223 µM and 13400 ng/mL
- Cmax ([1]; male, FVB/NJ, mouse, ip, TA conc. in spinal cord, single intraperitoneal injection of 50 mg/kg TA): 2.1 µM and 554 ng/mL
- Cmax ([1]; male, FVB/NJ, mouse, ip, TA conc. in testis, single intraperitoneal injection of 50 mg/kg TA): 11.6 µM and 3030 ng/mL
- Tmax ([1]; male, FVB/NJ, mouse, ip, TA in brain, single intraperitoneal injection of 50 mg/kg TA): 1 h
- concentration at 4 hr ([1]; male, FVB/NJ, mouse, ip, TA in brain, single intraperitoneal injection of 50 mg/kg TA, read-out: Clast (concentration at the last observed time point)): 66.7 ng/mL
- Tmax ([1]; male, FVB/NJ, mouse, ip, TA in liver, single intraperitoneal injection of 50 mg/kg TA): 1 h
- concentration at 24 hr ([1]; male, FVB/NJ, mouse, ip, TA in liver, single intraperitoneal injection of 50 mg/kg TA, read-out: Clast (concentration at the last observed time point)): 508 ng/mL
- Tmax ([1]; male, FVB/NJ, mouse, ip, TA in muscle, single intraperitoneal injection of 50 mg/kg TA): 1 h
- concentration at 8 hr ([1]; male, FVB/NJ, mouse, ip, TA in muscle, single intraperitoneal injection of 50 mg/kg TA, read-out: Clast (concentration at the last observed time point)): 119 ng/mL
- Tmax ([1]; male, FVB/NJ, mouse, ip, TA in plasma, single intraperitoneal injection of 50 mg/kg TA): 1 h
- concentration at 48 hr ([1]; male, FVB/NJ, mouse, ip, TA in plasma, single intraperitoneal injection of 50 mg/kg TA, read-out: Clast (concentration at the last observed time point)): 19.8 ng/mL
- Tmax ([1]; male, FVB/NJ, mouse, ip, TA in spinal cord, single intraperitoneal injection of 50 mg/kg TA): 1 h
- concentration at 4 hr ([1]; male, FVB/NJ, mouse, ip, TA in spinal cord, single intraperitoneal injection of 50 mg/kg TA, read-out: Clast (concentration at the last observed time point)): 84.6 ng/mL
- Tmax ([1]; male, FVB/NJ, mouse, ip, TA in testis, single intraperitoneal injection of 50 mg/kg TA): 1 h
- concentration at 8 hr ([1]; male, FVB/NJ, mouse, ip, TA in testis, single intraperitoneal injection of 50 mg/kg TA, read-out: Clast (concentration at the last observed time point)): 150 ng/mL
- bioavailability in muscle, brain, and spinal cord [1]: poor bioavailability
- bioavailability in SBMA-affected tissues [1, 2]: poor bioavailability
Structure (SMILES): Cc1c(Cl)cccc1Nc1ccccc1C(=O)O [TA, tolfenamic acid]
- any measurements of SBMA-associated degeneration (AR121Q mice): did not significantly alter any measurements of SBMA-associated degeneration
